Experimental data published in article PMC11903733 (Frontiers in Pharmacology, 2025).

Tests used:
Type in all cases: biochemical
LSD1 = molecular target: T1, LSD1 (Homo sapiens, UniProt O60341); experiment: Lance Ultra LSD1 demethylase TR-FRET enzyme inhibition assay; settings: recombinant human LSD1 (172–852 aa) 2 nM, Bio-H3K4me2 substrate, 1 h, TR-FRET; mean ± SD, n = 3
T1 construct: Recombinant human LSD1 (172–852 aa); by word order LSD1 from Sino Biological
From the text: (§1) These were utilized in both in vitro and in vivo assays. Iscove’s Modified Dulbecco’s Medium (IMDM), Roswell Park Memorial Institute (RPMI)-1640 medium, fetal bovine serum (FBS) and penicillin/streptomycin were purchased from Gibco (Grand Island, New Nork, United States). Recombinant human LSD1 (172–852 aa) and full-length LSD2 were obtained from Sino Biological Inc. and ActiveMotif.
(§2) The inhibitory effects of the tested compounds on LSD1 and LSD2 enzymes were methodically assessed using the Lance Ultra LSD1 Histone H3-Lysine 4 Demethylase Assay Kit from PerkinElmer, adhering to previously published methodologies ([Li et al., 2022]). In brief, the reaction was initiated by adding 4 μL of enzyme solution, with concentrations specified at 2 nM for LSD1 or 172 nM for LSD2, 4 μL of substrate solution [2.5 μM Bio-H3K4me2 ([…])], and 2 μL of tested compound to a Tris buffer (50 mM Tris-HCl, 50 mM NaCl, 0.01% Tween 20, 1 mM DTT, 10 μM FAD, 10% glycerol, pH 9.0) at room temperature and incubated for 1 h. Following the incubation, 5 μL of a detection mixture, comprising an Eu-labeled H3K4me0 antibody and ULight Streptavidin, was added to the reaction. The fluorescence intensity was then measured employing TR-FRET mode with excitation and emission wavelengths set at 320 nm and 665 nm, respectively, utilizing the Envision (PerkinElmer) system. Each experiment was performed in triplicate.

CDK6 = CDK6 (Homo sapiens, UniProt Q00534); experiment: SelectScreen kinase profiling
Experimental: (§3) The kinase selectivity analysis of LTM-1 was performed utilizing the SelectScreen Kinase Profiling Service offered by Thermo Fisher Scientific. In a dose-response assay featuring a ten-point dilution series from 0.25 μM to 128 μM, the inhibitory effects of LTM-1 on substrate phosphorylation reactions catalyzed by a panel of kinases were assessed. Consequently, the half-maximal inhibitory concentrations (IC50 values) for each kinase were determined.

FGR = FGR (Homo sapiens, UniProt P09769); experiment: SelectScreen kinase profiling
Experimental: as §3

NTRK1 = NTRK1 (Homo sapiens, UniProt P04629); experiment: SelectScreen kinase profiling
Experimental: as §3

BTK = BTK (Homo sapiens, UniProt Q06187); experiment: SelectScreen kinase profiling
Experimental: as §3

ABL1 = ABL1 (Homo sapiens, UniProt P00519); experiment: SelectScreen kinase profiling
Experimental: as §3

MUSK = MUSK (Homo sapiens, UniProt O15146); experiment: SelectScreen kinase profiling
Experimental: as §3

CDK4 = CDK4 (Homo sapiens, UniProt P11802); experiment: SelectScreen kinase profiling
Experimental: as §3

LTK = LTK (Homo sapiens, UniProt P29376); experiment: SelectScreen kinase profiling
Experimental: as §3

FGFR2 = FGFR2 (Homo sapiens, UniProt P21802); experiment: SelectScreen kinase profiling
Experimental: as §3

FGFR4 = FGFR4 (Homo sapiens, UniProt P22455); experiment: SelectScreen kinase profiling
Experimental: as §3

DDR2 = DDR2 (Homo sapiens, UniProt Q16832); experiment: SelectScreen kinase profiling
Experimental: as §3

JAK2 = JAK2 (Homo sapiens, UniProt O60674); experiment: SelectScreen kinase profiling
Experimental: as §3

NTRK2 = NTRK2 (Homo sapiens, UniProt Q16620); experiment: SelectScreen kinase profiling
Experimental: as §3

CDK2 = CDK2 (Homo sapiens, UniProt P24941); experiment: SelectScreen kinase profiling
Experimental: as §3

ITK = ITK (Homo sapiens, UniProt Q08881); experiment: SelectScreen kinase profiling
Experimental: as §3

BMX = BMX (Homo sapiens, UniProt P51813); experiment: SelectScreen kinase profiling
Experimental: as §3

KDR = KDR (Homo sapiens, UniProt P35968); experiment: SelectScreen kinase profiling
Experimental: as §3

PDGFRB = PDGFRB (Homo sapiens, UniProt P09619); experiment: SelectScreen kinase profiling
Experimental: as §3

LSD2 = molecular target: T2, LSD2 (Homo sapiens, UniProt Q8NB78); experiment: Lance Ultra demethylase TR-FRET enzyme inhibition assay, LSD2; settings: full-length LSD2 172 nM, Bio-H3K4me2 substrate, 1 h, mean ± SD, n = 3
T2 construct: full-length LSD2; by word order LSD2 from ActiveMotif
T2 sequence (Q8NB78 1-822): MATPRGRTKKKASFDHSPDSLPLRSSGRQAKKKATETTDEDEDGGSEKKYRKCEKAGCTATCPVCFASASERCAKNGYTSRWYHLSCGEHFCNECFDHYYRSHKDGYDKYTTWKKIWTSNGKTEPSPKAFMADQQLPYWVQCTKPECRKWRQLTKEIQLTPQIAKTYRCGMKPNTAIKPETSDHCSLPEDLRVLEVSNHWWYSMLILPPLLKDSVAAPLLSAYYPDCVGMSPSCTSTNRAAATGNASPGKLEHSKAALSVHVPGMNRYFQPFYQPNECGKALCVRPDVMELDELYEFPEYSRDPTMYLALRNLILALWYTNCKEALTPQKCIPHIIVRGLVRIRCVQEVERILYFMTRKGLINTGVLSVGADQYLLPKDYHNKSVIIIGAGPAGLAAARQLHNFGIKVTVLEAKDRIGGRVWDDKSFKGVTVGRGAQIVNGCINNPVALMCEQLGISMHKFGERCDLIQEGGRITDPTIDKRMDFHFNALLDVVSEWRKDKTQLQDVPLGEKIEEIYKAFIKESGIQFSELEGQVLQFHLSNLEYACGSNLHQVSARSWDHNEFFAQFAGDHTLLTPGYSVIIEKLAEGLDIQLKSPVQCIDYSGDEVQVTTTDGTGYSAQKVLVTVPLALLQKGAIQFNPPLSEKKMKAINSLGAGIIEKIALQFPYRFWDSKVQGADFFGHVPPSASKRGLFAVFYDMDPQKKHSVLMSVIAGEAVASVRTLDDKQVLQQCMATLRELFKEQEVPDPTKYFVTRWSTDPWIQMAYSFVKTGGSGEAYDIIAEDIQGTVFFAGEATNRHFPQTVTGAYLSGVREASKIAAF
From the text: as §1, §2

Sequence of NTRK1 (P04629 33-796): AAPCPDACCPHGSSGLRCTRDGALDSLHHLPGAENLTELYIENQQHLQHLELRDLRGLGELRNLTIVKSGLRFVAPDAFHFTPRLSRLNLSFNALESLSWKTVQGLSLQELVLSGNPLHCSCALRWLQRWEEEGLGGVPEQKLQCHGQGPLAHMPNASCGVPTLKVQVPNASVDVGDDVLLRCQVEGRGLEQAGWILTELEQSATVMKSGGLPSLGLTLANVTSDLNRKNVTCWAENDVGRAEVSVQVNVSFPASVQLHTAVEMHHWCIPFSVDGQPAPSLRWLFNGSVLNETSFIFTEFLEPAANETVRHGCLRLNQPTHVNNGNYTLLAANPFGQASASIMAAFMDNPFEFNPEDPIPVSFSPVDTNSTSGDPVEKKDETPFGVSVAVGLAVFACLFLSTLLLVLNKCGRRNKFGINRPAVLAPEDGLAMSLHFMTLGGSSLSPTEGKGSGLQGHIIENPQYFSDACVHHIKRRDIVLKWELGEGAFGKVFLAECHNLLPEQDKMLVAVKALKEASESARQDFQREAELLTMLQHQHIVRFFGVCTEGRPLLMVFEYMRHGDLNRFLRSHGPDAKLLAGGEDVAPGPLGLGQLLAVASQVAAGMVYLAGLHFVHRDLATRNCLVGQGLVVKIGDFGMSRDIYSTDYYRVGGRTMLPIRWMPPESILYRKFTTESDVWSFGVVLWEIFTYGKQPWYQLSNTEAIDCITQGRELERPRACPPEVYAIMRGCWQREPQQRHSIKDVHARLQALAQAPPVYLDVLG
Sequence of FGFR2 (P21802 22-821): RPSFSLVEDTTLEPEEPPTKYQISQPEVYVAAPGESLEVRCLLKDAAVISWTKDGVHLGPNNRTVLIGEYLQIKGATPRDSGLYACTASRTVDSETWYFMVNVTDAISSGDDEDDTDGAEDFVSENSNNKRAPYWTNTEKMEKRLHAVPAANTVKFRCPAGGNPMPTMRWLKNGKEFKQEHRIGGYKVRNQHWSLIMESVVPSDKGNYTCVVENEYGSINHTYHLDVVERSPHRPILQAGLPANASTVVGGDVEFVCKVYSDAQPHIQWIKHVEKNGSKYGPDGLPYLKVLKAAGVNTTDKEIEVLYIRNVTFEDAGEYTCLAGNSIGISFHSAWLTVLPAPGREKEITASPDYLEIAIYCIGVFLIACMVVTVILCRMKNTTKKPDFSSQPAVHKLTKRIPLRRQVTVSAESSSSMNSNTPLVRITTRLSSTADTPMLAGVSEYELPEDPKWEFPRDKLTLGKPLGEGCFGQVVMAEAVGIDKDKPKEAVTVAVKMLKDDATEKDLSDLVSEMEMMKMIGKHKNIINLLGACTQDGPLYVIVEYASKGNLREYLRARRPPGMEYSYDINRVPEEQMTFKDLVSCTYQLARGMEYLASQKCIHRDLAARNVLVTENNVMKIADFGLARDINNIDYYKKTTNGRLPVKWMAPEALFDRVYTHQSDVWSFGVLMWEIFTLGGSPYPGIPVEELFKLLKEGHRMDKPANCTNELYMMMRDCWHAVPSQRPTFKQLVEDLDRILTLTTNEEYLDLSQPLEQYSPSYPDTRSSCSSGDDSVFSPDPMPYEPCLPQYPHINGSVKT
Sequence of PDGFRB (P09619 33-1106): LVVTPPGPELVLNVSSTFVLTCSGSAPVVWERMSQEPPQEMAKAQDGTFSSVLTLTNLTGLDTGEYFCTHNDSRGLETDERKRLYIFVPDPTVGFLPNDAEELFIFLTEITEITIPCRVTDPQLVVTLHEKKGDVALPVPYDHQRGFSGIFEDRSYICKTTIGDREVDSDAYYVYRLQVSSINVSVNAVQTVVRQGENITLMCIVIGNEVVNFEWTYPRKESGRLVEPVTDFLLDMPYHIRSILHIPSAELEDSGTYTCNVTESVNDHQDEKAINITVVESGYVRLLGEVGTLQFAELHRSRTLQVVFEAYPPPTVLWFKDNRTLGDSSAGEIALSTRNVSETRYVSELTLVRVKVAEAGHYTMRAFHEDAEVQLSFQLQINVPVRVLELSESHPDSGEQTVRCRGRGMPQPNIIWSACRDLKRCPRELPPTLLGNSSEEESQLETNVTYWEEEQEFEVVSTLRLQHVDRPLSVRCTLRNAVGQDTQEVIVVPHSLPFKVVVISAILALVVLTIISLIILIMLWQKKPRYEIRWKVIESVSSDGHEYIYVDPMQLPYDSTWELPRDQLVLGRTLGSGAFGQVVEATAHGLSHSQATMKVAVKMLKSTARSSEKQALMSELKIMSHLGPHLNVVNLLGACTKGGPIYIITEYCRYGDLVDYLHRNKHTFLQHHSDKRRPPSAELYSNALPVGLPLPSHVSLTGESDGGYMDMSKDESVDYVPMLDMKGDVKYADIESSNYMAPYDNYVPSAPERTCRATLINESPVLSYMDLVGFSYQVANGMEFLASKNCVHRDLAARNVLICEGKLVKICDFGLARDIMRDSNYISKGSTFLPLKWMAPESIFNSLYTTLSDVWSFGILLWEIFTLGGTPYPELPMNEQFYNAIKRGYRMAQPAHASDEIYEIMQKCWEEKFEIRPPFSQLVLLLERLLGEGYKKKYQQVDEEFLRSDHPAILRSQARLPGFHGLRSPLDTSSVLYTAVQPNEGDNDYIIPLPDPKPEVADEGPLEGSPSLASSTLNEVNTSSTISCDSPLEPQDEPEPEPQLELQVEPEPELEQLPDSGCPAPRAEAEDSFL
Sequence of MUSK (O15146 24-869): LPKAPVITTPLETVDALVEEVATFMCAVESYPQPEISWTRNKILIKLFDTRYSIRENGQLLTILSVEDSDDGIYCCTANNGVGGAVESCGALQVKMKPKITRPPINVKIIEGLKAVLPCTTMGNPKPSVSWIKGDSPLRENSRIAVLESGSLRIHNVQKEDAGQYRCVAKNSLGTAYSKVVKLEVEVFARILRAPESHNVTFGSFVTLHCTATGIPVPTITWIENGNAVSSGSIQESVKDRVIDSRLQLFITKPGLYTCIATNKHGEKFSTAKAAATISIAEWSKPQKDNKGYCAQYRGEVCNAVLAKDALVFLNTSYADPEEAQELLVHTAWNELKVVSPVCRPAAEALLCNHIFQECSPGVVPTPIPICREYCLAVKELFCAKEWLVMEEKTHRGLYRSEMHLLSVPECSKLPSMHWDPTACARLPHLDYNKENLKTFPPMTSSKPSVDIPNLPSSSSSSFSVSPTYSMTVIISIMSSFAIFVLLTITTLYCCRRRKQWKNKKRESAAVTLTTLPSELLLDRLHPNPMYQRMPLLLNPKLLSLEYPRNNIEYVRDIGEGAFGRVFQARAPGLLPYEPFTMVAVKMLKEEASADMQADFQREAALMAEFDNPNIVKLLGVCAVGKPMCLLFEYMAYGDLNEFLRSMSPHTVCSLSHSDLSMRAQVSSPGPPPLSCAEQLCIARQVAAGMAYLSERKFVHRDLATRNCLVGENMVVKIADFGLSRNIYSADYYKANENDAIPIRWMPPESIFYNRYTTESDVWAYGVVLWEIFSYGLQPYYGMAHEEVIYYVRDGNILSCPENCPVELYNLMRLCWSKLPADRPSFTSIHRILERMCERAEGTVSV
Sequence of JAK2 (O60674 whole entry): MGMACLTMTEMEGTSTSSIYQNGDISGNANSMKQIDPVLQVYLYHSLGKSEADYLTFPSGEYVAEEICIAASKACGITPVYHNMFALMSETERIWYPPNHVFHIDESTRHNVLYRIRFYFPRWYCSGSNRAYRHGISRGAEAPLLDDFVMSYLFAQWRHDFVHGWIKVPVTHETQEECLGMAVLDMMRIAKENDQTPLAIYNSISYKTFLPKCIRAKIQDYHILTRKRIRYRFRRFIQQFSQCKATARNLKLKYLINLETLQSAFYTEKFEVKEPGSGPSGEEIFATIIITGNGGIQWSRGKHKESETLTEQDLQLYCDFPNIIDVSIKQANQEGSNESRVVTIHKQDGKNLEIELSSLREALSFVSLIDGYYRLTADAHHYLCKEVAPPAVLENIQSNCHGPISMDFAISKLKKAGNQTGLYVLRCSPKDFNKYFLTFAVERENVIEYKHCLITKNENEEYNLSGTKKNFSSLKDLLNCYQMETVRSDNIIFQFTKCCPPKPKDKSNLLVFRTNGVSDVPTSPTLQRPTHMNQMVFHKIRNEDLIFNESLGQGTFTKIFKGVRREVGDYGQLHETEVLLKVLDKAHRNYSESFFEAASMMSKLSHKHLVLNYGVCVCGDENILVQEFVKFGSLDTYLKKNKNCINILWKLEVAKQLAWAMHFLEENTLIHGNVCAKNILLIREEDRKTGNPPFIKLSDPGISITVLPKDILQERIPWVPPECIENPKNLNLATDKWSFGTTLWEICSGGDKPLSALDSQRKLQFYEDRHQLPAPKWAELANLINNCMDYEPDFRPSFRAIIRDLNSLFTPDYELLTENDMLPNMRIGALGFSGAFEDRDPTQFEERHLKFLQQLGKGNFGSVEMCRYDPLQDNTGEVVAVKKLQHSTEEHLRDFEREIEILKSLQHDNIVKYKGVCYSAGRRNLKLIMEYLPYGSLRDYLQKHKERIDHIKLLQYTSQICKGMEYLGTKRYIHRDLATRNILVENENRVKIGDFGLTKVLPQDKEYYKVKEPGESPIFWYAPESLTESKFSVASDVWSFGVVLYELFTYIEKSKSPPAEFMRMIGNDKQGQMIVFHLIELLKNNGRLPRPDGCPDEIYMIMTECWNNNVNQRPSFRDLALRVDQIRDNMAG

IC50 (LSD1): 0.00211 ± 0.00014 µM | IC50 (CDK6): > 10 µM | IC50 (FGR): > 10 µM | IC50 (NTRK1): > 10 µM | IC50 (BTK): > 10 µM | IC50 (ABL1): > 10 µM | IC50 (MUSK): > 10 µM | IC50 (CDK4): > 10 µM | IC50 (LTK): > 10 µM | IC50 (FGFR2): > 10 µM | IC50 (FGFR4): > 10 µM | IC50 (DDR2): > 10 µM | IC50 (JAK2): > 10 µM | IC50 (NTRK2): > 10 µM | IC50 (CDK2): > 10 µM | IC50 (ITK): > 10 µM | IC50 (BMX): > 10 µM | IC50 (KDR): > 10 µM | IC50 (PDGFRB): > 10 µM | IC50 (LSD2): > 5 µM
SMILES: O=S(=O)(c1ccc(C(O)CO)c(C(F)(F)F)c1)N1CCc2cc(C3CC3NCC3CCNCC3)ccc21 (centres unmarked) [LTM-1]
